# Legend:
# LhcSR3 [1] = biological target: T1, LhcSR3 (Chlamydomonas reinhardtii, UniProt P0DO19); assay: […]-DCCD labelling, SDS-PAGE autoradiography, densitometry; type: binding; conditions: covalent; labelled compound; protonatable residues
# T1 construct: gene LHCSR3.1; precursor 259 residues
# T1 sequence (P0DO19 46-259 limits assumed): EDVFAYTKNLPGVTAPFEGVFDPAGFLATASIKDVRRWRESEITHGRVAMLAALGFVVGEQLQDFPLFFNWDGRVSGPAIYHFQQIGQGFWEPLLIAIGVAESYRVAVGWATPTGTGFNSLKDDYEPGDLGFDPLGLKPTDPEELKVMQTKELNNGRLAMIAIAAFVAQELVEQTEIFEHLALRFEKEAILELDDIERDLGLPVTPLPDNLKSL
# LhcSR3 [2] = biological target: T1, LhcSR3; assay: in vitro reconstitution, HPLC pigment analysis, Soret spectral deconvolution; type: binding
# [3] = refolded with Chl a, Chl b, lutein and violaxanthin (LV complex), sites L1/L2 proposed
SMILES,"in vitro reconstitution, HPLC pigment analysis, Soret spectral deconvolution (LhcSR3 [2]; [3])",further results
C(=NC1CCCCC1)=NC1CCCCC1 [DCCD],–,"14C-DCCD labelling, SDS-PAGE autoradiography, densitometry (LhcSR3 [1]): LhcSR3 revealed very efficient binding of DCCD, higher than plant CP29"
CC1=C[C@H](O)CC(C)(C)[C@H]1/C=C/C(C)=C/C=C/C(C)=C/C=C/C=C(C)/C=C/C=C(C)/C=C/C1=C(C)C[C@@H](O)CC1(C)C [lutein],lutein and violaxanthin bound to the apoprotein,–
CC(/C=C/C=C(C)/C=C/[C@@]12O[C@]1(C)C[C@@H](O)CC2(C)C)=C\C=C\C=C(C)\C=C\C=C(C)\C=C\[C@@]12O[C@]1(C)C[C@@H](O)CC2(C)C [violaxanthin],lutein and violaxanthin bound to the apoprotein,–
CC1=C(/C=C/C(C)=C/C=C/C(C)=C/C=C/C=C(C)/C=C/C=C(C)/C=C/C2=C(C)C[C@@H](O)CC2(C)C)C(C)(C)C[C@H](O)C1 [zeaxanthin],–,"in vitro reconstitution, HPLC pigment analysis, Soret spectral deconvolution (LhcSR3 [2]; refolded with zeaxanthin present besides lutein and violaxanthin (LVZ complex), several sites): implying that Zea entered the three sites, although to different extents"

# Source: publication PMC3022525, “Analysis of LhcSR3, a Protein Essential for Feedback De-Excitation in the Green Alga Chlamydomonas reinhardtii” (PLoS Biology, 2011)
